The subject of data set [1] is mouse. As to the kind of experiment: (-)Nicotine induced mouse lethality after pretreatment. Type of data set: in vivo. The note with it: saline pretreatment.
Assay in data set [2]: as above
In kind it is in vivo. The note with it: mouse, in vivo, ip; saline pretreatment; read-out: LD50 [95% C.I.] of (-)nicotine.

Data set [3] relates to CD1 mice. As to the kind of experiment: Mouse elevated-plus maze (conflict test, anxiolytic activity). In kind it is in vivo. Here is the method:
FIG. 1A is a graph of time mice spend in the open arms of the elevated-plusmaze (a conflict test that probes anxiolytic activity) as a function of the dose of (-)nicotine administered to the mice.
FIG. 1B is a graph of time mice spend in the open arms of the elevated-plusmaze as a function of the administration of (+)2-methylpiperidine (0.1 mg/kg) or (-)nicotine administered separately or in combination.
The mouse elevated-plus maze is a conflict test that probes anxiolytic activity (Lister, Pyschopharmacology, 1987, 92:180). It is based on the fact that exposure of mice to an elevated open arm leads to an avoidance response considerably stronger than that evoked by exposure to an enclosed arm.
The apparatus required to perform this test is made of plexiglass and consists of two open arms (17×8 cm) and two enclosed arms (17×8×15 cm) extending from a central platform (8×8 cm). It is mounted on an opaque plexiglass base rising 39 cm above the floor. Mice are released on one of the open arms and the time spent in the open and enclosed arms is recorded during a 5 min. test period.
CD1 mice (n=8 per group) received systemic (-)nicotine injections (0, 0.03, 0.1 or 0.3 mg/kg, IP) fifteen minutes before they were allowed to explore the plus-maze for a 5 minute test period.

Data set [4] concerns male CD1 mice. As to the kind of experiment: Acute lethality in mice within 24 hours. In kind it is in vivo, mouse. The note with it: (-)nicotine 9.0 mg/kg. From the text: Compounds were given as the respective mandelic acid salts.
Data set [5] in a line: Combined effects of (-)nicotine and (+)2-methylpiperidine on rectal temperatures of mice. The note with it: for Rectal temperature: saline pretreatment, * p<0.05 vs saline (38.3 ± 0.1), mean ± S.E.M. In kind it is in vivo, mouse.
Data set [6] has as its system CD1 mice. The following applies: known anxiolytic drug, background of the test; cited from earlier work.

Each structure is given as a SMILES string.

The text below walks through data of US5272155A, “(+)-2-methylpiperidine as modulator of cholinergic systems” (Abbott Laboratories, priority 1991, dated 1993).

As for `CN1CCCC1c1cccnc1` (single isomer, unassigned; (-)) [(-)nicotine, reference compound], the DEATHS/24 hours is listed as 0/6 in data set [1] ((-)nicotine 3 mg/kg), 2/8 in data set [1] ((-)nicotine 6 mg/kg) and 4/6 in data set [1] ((-)nicotine 9 mg/kg). The LD50 (usually the dose at which mortality reaches 50%) in data set [2] was 7.7 mg/kg. For the same compound, the “time spent in the open arms (anxiolytic effect)” value in data set [3] ((-)nicotine 0.1 and 0.3 mg/kg, IP, 15 min before test, p<0.05 vs saline, n=8) was “significant increase in the time spent by the mice in the open arms”. In addition, in data set [3] ((-)nicotine dose used in the combination of FIG. 1B), the “anxiolytic activity of the low (-)nicotine dose given alone” value was “non-effective”. For the same compound, the death of animals in data set [4] is recorded as 4 out of 6. Moreover, the signs of cholinostimulation entry in data set [4] is “dyspnea and decreased activity”. For the same compound, the effect on temperature entry in data set [5] ((-)nicotine 0.3 and 1.0 mg/kg, i.p.) is on record as “significantly lowered temperature”. For the same compound, the Rectal temperature in data set [5] ((-)nicotine 0.3 mg/kg) was 36.9 ± 0.2 °C; in data set [5] ((-)nicotine 1.0 mg/kg), 36.5 ± 0.6 °C.
On to `CN1C(=O)CN=C(c2ccccc2)c2cc(Cl)ccc21` [diazepam], for which, in data set [6], the “time spent in open arms, known anxiolytic drugs” value was “increased in a dose-related way”.
